Assays:
MTLR [1] = details: cited from earlier work
MTLR [2] = details: cited from earlier work; remark: listed apart in the source
GI motility = details: cited from earlier work; for GI motility activity: [51]
MTLR [3] = details: camicinal; ref [51]; cited from earlier work
[4] = cited from earlier work
[5] = system: MTLR, substitution of E119^3.33 with aspartic acid; details: E119^3.33 substituted with aspartic acid; ref [16]; cited from earlier work
MTLR [6] = details: cited from earlier work; remark: listed apart in the source
gastroparesis = details: ref [14], [15]; cited from earlier work
MTLR L341A = MTLR L341A (Homo sapiens, UniProt O43193, L341A); assay: IP1 accumulation; type: cell-based; details: MTLR-bearing alanine mutation of L341^7.39
MTLR L341A, sequence (O43193 whole entry L341A): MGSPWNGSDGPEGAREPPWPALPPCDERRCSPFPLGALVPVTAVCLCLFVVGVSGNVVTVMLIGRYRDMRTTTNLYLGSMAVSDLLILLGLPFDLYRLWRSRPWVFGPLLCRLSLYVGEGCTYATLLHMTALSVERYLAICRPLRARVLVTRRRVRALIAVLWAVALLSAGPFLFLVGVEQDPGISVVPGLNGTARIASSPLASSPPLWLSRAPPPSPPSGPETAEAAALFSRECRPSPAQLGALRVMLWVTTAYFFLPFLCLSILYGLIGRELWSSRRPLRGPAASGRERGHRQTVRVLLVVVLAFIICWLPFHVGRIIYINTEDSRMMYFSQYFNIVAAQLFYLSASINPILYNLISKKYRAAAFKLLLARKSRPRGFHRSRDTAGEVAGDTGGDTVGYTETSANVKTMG

Compound: CC[C@H]1OC(=O)[C@H](C)[C@@H](O[C@H]2C[C@@](C)(OC)C[C@H](C)O2)[C@H](C)[C@@H](O[C@@H]2O[C@H](C)C[C@H](N(C)CC)[C@H]2O)[C@@]2(C)CC(C)=C(O2)[C@H](C)[C@@H](O)[C@H]1C [ABT-229]
- desensitization-inducing effect (MTLR [1]; compared with motilin and erythromycin, ref [52], [53]): more potent desensitization-inducing effect compared with motilin and erythromycin
- receptor internalization (MTLR [1]; ref [52], [53]): relatively high ability to induce receptor internalization

Compound: C[C@H]1CN(Cc2ccc(CC(=O)N3CCC(Nc4cccc(F)c4)CC3)cc2)CCN1 [Camicinal, camicinal]
- oral effectiveness as MTLR agonist (MTLR [2]; ref [51]): orally effective MTLR agonist
- gastric cholinergic activity (GI motility; ref [51]): long-lasting gastric cholinergic activity
- receptor selectivity (MTLR [3]): high receptor selectivity

Compound: CC[C@H]1OC(=O)[C@H](C)[C@@H](O[C@H]2C[C@@](C)(OC)[C@@H](O)[C@H](C)O2)[C@H](C)[C@@H](O[C@@H]2O[C@H](C)C[C@H](N(C)C)[C@H]2O)[C@](C)(O)C[C@@H](C)CN(C)[C@H](C)[C@@H](O)[C@]1(C)O [azithromycin]
- GI motility activity (GI motility; ref [9]): mimic the GI motility activity of motilin
- GI disturbances ([4]; long-term use, azithromycin, ref [4], [15]): often causes unexpected GI disturbances

Compound: CC[C@H]1OC(=O)[C@H](C)[C@@H](O[C@H]2C[C@@](C)(OC)[C@@H](O)[C@H](C)O2)[C@H](C)[C@@H](O[C@@H]2O[C@H](C)C[C@H](N(C)C)[C@H]2O)[C@](C)(O)C[C@@H](C)C(=O)[C@H](C)[C@@H](O)[C@]1(C)O [erythromycin]
- weaker MTLR activation ability than motilin (MTLR [2]; erythromycin versus motilin, ref [4]): ~ 1000 -fold
- MTLR agonism (MTLR [2]; ref [11]): agonist for MTLR
- ligand activity [5]: marked decrease in ligand activity
- GI contractile activity (GI motility; ref [9], [10]): mimic exogenous motilin in GI contractile activity
- GI motility activity (GI motility; ref [9]): mimic the GI motility activity of motilin
- role of ECL2 regions of MTLR for erythromycin (MTLR [6]; ref [16], [35]): not critical for erythromycin
- effectiveness in gastroparesis (gastroparesis): effective treatment for gastroparesis
- erythromycin activity (in words) (MTLR L341A): markedly decreased erythromycin activities

Compound: CC[C@H]1OC(=O)[C@H](C)[C@@H](O[C@H]2C[C@@](C)(OC)[C@@H](O)[C@H](C)O2)[C@H](C)[C@@H](O[C@@H]2O[C@H](C)C[C@H](N(C)C(C)C)[C@H]2O)[C@@]2(C)CC(C)=C(O2)[C@H](C)C(=O)[C@]1(C)OC [mitemcinal]
- desensitization effect (MTLR [1]; ref [54]): much more improved

Compound: atilmotin
- adverse effects ([4]; ref [50]): not associated with any central nervous system–, respiratory system–, or cardiovascular system–related adverse effects

Compound: motilin analog [1-12]: motilin analog [1-12] (FVPIFTYGELQR; Motilin; UniProt P12872 26-37, looked up, fragment)
- fold increased binding affinity (MTLR [6]; motilin analog [1-12] compared with analog [1-11], ref [4]): 158 -fold

— publication PMC10017046 (Science Advances, 2023)
